Columns and labels:
[1] = test system: 17 angiogenic and adhesion-related genes in HUVEC cells; test: Gene regulation assay (whole human gene-expression microarray); type: cell-based; details: 10^−5M, 48 hours, FIG. 2
Description: HUVEC cells were maintained in CS—C Complete Medium, grown at 50 percent of confluency and then treated with 1.00E-05 M final concentration of the peptide compounds during 48 hours.
Total RNA was extracted from untreated control or RGD-compounds treated cells using TRIzol (Invitrogen) according to standard protocol. RNA was further purified with RNeasy Mini Kit (Qiagen) and the concentration and quality was assessed by NanoDrop spectrophotometer and Agilent 2100 Bioanalyzer, respectively. Only RNA Samples with a RIN number between […]were used in the microarray assays.
In order to study the intracellular effect of all RGD-binding compounds, a cell-culture whole gene-expression assay was performed. HUVEC cells were treated separately with a 10^−5M concentration of the test compounds during 48 hours. The simultaneous analysis of all human gene-expression by microarray let us identify which human gene(s) are induced, inhibited or un-affected after the test compounds were bound to the receptors of the cells.
Whole human gene expression microarray analysis was performed using Agilent Technologies (Santa Clara, Calif.). This platform comprises a two-color design with two RNA samples labelled with either Cy3 or Cy5 and hybridized to the same 44K Agilent microarray. Each array contains about 41,000 unique noncontrol 60-mer probes. RNAs from untreated and peptide treated-HUVEC cells were two-color labelled and hybridized to randomly chosen arrays a total of four times. A dye swap was performed for each sample on a different slide to remove any bias from the labelling dyes.
For each sample, 800 ng total RNA was reverse transcribed, linear amplified, and labelled with either Cy3 or Cy5 using Agilent's Low RNA Input Linear Amplification Kit PLUS, according to manufacturer's instructions. After labelling, samples were measured on a Nanodrop microarray module for labelling efficiency and quantification. Samples were then hybridized on Agilent 4×44K whole human genome GE arrays at 65° C. for 17 h. After washing in GE washing buffer, the slide was scanned with Agilent Microarray Scanner. Feature extraction software (Version 9.5.3) was used to convert the image into gene expression data. Data were normalized by the Linear Lowess method. Genes that were 1.5-fold differentially expressed on 3 of 4 arrays were scored as significant. Furthermore, only genes with a p-value≦0.05 based on a Student's t-test were selected. Mean fold change is mean of 4 arrays. Angiogenic-related genes were classified according to Gene Ontology.

[2] = molecular target: αvβ3 integrin (Homo sapiens, UniProt P05106+P06756); details: J. Med. Chem. 2010, vol. 53(1), pp. 106-118; cited from earlier work
Chain of αvβ3 integrin (P06756 31-889 limits assumed): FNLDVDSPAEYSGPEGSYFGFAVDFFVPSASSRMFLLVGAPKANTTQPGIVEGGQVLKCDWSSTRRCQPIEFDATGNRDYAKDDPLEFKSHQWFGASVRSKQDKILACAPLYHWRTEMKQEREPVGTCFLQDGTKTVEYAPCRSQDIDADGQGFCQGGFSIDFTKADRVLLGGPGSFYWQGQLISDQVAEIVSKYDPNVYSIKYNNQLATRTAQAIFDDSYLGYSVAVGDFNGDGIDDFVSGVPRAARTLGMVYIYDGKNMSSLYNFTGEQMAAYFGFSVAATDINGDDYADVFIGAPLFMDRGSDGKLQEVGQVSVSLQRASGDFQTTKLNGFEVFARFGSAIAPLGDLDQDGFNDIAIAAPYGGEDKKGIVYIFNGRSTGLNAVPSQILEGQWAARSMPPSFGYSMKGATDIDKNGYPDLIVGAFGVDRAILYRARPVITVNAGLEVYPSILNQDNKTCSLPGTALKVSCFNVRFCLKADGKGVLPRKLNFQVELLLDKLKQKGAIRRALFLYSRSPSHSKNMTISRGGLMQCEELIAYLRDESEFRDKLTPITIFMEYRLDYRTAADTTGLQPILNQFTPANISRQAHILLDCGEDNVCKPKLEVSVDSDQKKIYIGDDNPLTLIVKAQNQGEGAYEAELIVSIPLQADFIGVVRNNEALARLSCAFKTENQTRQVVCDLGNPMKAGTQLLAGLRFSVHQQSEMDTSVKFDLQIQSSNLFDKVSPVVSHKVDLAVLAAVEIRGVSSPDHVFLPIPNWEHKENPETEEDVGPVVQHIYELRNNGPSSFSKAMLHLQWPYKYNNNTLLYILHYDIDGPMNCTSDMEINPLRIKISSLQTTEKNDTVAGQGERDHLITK
Chain of αvβ3 integrin (P06756 891-1048 limits assumed): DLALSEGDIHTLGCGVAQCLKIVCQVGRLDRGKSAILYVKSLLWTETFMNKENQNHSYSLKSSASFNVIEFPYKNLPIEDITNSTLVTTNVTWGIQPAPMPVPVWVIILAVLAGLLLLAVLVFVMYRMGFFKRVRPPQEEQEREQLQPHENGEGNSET
Chain of αvβ3 integrin (P05106 27-788): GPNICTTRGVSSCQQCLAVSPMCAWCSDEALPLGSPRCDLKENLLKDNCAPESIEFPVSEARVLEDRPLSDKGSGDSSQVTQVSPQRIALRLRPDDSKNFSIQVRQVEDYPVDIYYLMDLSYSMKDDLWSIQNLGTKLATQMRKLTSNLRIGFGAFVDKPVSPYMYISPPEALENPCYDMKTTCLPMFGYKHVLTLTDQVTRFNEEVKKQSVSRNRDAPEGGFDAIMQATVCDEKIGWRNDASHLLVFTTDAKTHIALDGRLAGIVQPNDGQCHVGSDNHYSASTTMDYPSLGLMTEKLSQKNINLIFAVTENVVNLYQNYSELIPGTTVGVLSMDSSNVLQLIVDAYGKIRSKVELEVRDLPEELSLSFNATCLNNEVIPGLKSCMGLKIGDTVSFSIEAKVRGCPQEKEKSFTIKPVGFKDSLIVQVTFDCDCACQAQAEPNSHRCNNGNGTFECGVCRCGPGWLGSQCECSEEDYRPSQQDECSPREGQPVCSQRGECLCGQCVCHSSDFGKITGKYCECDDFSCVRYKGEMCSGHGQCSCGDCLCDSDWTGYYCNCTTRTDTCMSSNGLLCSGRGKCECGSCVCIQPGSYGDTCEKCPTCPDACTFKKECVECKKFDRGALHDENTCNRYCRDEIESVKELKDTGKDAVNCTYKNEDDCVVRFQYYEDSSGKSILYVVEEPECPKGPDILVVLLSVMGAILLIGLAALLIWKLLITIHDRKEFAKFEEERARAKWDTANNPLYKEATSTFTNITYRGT

[3] = test system: αvβ3 integrin over-expressed human umbilical vein endothelial cells (HUVEC); test: Endothelial cell adhesion assay (adhesion inhibition on a vitronectin surface); type: cell-based; details: HUVEC on vitronectin-coated plate, 1 h at 37° C.; FIG. 1
Description: Human umbilical endothelial cell (HUVEC) was purchased from Cambrex BioScience (USA). Cells were grown on the 0.5% gelatin coated plate in CS—C Complete Medium (Sigma) and were used for experiments after three passages. DLD-1, human colon cancer cell line was purchased from LGC/ATCC (Cat. Number CCL-221), and maintained in RPMI 1640 (Sigma) supplemented with 10% FBS (Sigma). Human vitronectin was from Sigma. Peptides to be assayed were dissolved in double-distilled water at a concentration of 10 mg/ml and stored in the dark at −80°.
HUVEC cells were grown to subconfluent state and then harvested by 0.025% trypsin/EDTA (Sigma) in one minute. Cells were preincubated with various concentrations of peptides on ice for 15 min in CS—C Medium. Same volume of vehicle was added to cells as a control. Peptide-treated cells (5×10^4 cells/100 μl/well) were plated onto a 96-well microplate which was precoated with vitronectin ([…] in PBS), and incubated for 1 h at 37° C., 5% CO^2/95% air to allow cell attachment. Cells were washed gently with PBS for three times to remove detached cells. Number of adherent cells was measured by Fluorescent Cell counting Kit (FCCK) at 535 nm (excitation at 485 nm) using a fluorescent plate reader (Bioscan). […]
Data are expressed as the means±standard error of mean (SEM). Statistical differences among treatment groups were assessed by analysis of variance (ANOVA). […]

[4] = of 17 angiogenic and adhesion-related genes

CC(C)[C@H]1C(=O)N[C@@H](CCCN=C(N)N)C(=O)NCC(=O)N[C@@H](CC(=O)O)C(=O)N[C@H](Cc2ccccc2)C(=O)N1C [cilengitide, cyclo(Arg-Gly-Asp-(D)Phe-N(Me)Val)]
genes activated after treatment [1, 4]: 10 genes | genes blocked after treatment [1, 4]: 7 genes

N=C(N)NCCC[C@@H]1NC(=O)CN2C(=O)C(NC(=O)[C@H](CC(=O)O)NC(=O)CNC1=O)[C@H]2[C@H](O)CO (stereo partly shown) [compound 1]
pattern of gene-expression conserved relative to cilengitide ([1]; of 17 genes): 15/17

CC1(C)C(=O)N[C@@H](CCCNC(=N)N)C(=O)NCC(=O)N[C@@H](CC(=O)O)C(=O)NC2(Cc3ccccc3)CN1C2=O (stereo partly shown) [compound 2]
pattern of gene-expression conserved relative to cilengitide ([1]; of 17 genes): 14 of 17

c[(R)-βPheψ(NHCO)Aspψ(NHCO)Gly-Arg]
inhibiting the αvβ3 integrin-mediated cell adhesion [2]: good activity

cyclo-[Asp-(beta-Lactam)-Arg [Example 24]
adhesion inhibition (% of cell adhesion vs. concentration) [3]: comparable adhesion inhibition as cilengitide and the RGD-cyclopentapeptides | pattern of gene-expression almost opposite (activation vs inhibition) compared with cilengitide ([1]; of 17 genes): 15 of 17
